From ChEMBL document CHEMBL2439983, “The discovery and optimization of novel dual inhibitors of topoisomerase II and histone deacetylase” (Bioorg Med Chem, 2013) come the findings set out here.

Experiment [1] addresses T1, Protein deacetylase HDAC6 (Homo sapiens, UniProt Q9UBN7).
T1 sequence (Q9UBN7 whole entry): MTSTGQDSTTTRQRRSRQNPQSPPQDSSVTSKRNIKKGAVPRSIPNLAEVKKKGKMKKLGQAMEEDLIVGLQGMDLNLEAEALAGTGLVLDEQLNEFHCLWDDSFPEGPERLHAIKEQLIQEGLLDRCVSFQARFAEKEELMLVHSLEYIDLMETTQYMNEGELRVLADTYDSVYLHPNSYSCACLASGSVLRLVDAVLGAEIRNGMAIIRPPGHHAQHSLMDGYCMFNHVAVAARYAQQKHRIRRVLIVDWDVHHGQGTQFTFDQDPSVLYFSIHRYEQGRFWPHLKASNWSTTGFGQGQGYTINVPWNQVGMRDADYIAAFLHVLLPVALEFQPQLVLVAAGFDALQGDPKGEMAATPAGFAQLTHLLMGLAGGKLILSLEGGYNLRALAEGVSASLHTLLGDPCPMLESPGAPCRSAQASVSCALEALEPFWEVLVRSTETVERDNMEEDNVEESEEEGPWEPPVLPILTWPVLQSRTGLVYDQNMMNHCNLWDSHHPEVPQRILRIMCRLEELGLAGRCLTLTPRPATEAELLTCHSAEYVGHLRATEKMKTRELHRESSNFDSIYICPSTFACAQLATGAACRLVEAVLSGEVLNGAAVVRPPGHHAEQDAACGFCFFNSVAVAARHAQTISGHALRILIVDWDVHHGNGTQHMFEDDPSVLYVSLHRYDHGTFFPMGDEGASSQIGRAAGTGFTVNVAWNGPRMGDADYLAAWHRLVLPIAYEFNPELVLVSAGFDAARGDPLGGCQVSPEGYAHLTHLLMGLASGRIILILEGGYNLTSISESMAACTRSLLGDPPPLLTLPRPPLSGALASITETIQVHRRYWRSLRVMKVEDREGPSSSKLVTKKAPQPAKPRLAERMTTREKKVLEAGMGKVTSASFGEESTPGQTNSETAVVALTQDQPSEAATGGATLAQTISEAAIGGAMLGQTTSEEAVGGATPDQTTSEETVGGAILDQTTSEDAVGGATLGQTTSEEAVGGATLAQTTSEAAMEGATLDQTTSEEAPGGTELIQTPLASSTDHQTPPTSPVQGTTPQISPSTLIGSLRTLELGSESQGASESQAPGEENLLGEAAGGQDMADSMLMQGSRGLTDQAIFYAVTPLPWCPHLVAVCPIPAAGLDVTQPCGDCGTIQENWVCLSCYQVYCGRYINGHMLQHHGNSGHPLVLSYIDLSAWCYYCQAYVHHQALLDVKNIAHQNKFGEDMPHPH
As to the kind of experiment: Inhibition of human recombinant HDAC6 expressed in baculovirus infected insect high5 cells using Boc-Lys (epsilon-acetyl)-AM) as substrate after 3 to 24 hrs by fluorescence assay.

A further experiment concerns HCT-116. As to the kind of experiment: cells. To be noted: Homo sapiens, HCT-116, 72 h.
Another experiment has as its target Histone deacetylase 1 (Homo sapiens, UniProt Q13547). The experiment can be described thus: Inhibition of human recombinant HDAC1 expressed in baculovirus infected insect high5 cells using Ac-Lys-Tyr-Lys (epsilon-acetyl)-AMC as substrate after 3 to 24 hrs by fluorescence assay.
For the next experiment, the target named is Histone deacetylase 3 (Homo sapiens, UniProt O15379). As to the kind of experiment: Inhibition of human recombinant HDAC3 expressed in baculovirus infected insect high5 cells using Ac-Lys-Tyr-Lys (epsilon-acetyl)-AMC as substrate after 3 to 24 hrs by fluorescence assay.

SMILES strings stand for the structures.

Chain of Histone deacetylase 1 (Q13547 whole entry): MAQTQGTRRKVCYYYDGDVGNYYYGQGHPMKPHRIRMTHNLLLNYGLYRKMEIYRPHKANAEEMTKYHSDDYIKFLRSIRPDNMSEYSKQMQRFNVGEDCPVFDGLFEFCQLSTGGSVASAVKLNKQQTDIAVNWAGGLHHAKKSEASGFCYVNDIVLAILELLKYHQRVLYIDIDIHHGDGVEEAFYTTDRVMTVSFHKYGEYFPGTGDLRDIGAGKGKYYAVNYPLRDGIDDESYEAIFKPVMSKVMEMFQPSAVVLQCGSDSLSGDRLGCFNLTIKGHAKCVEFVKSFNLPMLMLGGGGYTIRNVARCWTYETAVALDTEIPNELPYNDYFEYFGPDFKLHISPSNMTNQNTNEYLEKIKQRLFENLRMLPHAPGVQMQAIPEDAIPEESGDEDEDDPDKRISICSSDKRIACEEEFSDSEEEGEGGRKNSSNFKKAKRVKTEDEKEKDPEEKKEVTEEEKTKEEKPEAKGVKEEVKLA
Chain of Histone deacetylase 3 (O15379 whole entry): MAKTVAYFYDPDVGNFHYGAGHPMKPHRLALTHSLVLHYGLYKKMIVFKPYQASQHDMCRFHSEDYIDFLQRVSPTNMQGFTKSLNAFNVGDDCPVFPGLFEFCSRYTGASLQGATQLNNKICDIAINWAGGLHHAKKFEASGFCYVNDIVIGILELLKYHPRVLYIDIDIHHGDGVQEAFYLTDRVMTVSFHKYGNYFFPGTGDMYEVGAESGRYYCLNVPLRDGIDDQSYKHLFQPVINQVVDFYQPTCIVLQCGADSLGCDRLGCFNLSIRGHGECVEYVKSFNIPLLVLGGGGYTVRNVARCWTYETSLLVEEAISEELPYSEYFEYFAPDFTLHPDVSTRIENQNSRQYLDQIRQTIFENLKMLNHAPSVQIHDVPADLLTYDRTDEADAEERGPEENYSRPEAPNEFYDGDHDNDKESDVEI
Description for HCT-116: Antiproliferative activity against human HCT116 cells assessed as cell viability after 72 hrs by MTT assay

As a reminder, the IC50 is the concentration that gives 50% inhibition. As for `COc1cc([C@@H]2c3cc4c(cc3[C@@H](Nc3ccc(NC(=O)CCCCCC(=O)NO)cc3)[C@H]3COC(=O)[C@H]23)OCO4)cc(OC)c1O`, the IC50 in experiment [1] worked out at 130 nM; in the experiment with HCT-116, 2940 nM; on Histone deacetylase 1, 590 nM; at Histone deacetylase 3 it was 520 nM.
For `COc1cc([C@@H]2c3cc4c(cc3[C@@H](Nc3ccc(NC(=O)CCCCC(=O)NO)cc3)[C@H]3COC(=O)[C@H]23)OCO4)cc(OC)c1O`, in that order: 1060 nM, 3760 nM, 2830 nM and 1690 nM.
On the same counts, the results for `COc1cc([C@@H]2c3cc4c(cc3[C@@H](Nc3ccccc3OCCCCCC(=O)NO)[C@H]3COC(=O)[C@H]23)OCO4)cc(OC)c1O` are 20 nM, 8100 nM, 145 nM and 188 nM.
For `COc1cc([C@@H]2c3cc4c(cc3[C@@H](Nc3cccc(OCCCCCCCC(=O)NO)c3)[C@H]3COC(=O)[C@H]23)OCO4)cc(OC)c1O`, in that order: 69 nM, 5190 nM, 39 nM and 69 nM.
As for `COc1cc([C@@H]2c3cc4c(cc3[C@@H](Nc3ccc(OCCCCCCCC(=O)NO)cc3)[C@H]3COC(=O)[C@H]23)OCO4)cc(OC)c1O`, the IC50 is 53 nM in experiment [1], 3720 nM in the experiment with HCT-116, 87 nM on Histone deacetylase 1 and 53 nM on Histone deacetylase 3.
Turning to `COc1cc([C@@H]2c3cc4c(cc3[C@@H](Nc3cccc(NC(=O)CCCCC(=O)NO)c3)[C@H]3COC(=O)[C@H]23)OCO4)cc(OC)c1O`, the IC50 came to 520 nM in experiment [1], 14100 nM in the experiment on HCT-116, 1430 nM at Histone deacetylase 1 and 2110 nM at Histone deacetylase 3.
For `COc1cc([C@@H]2c3cc4c(cc3[C@@H](Nc3ccc(OCCCCCC(=O)NO)cc3)[C@H]3COC(=O)[C@H]23)OCO4)cc(OC)c1O`, in that order: 26 nM, 4920 nM, 207 nM and 69 nM.
On the same counts, the results for `COc1cc([C@@H]2c3cc4c(cc3[C@@H](Nc3cccc(OCCCCC(=O)NO)c3)[C@H]3COC(=O)[C@H]23)OCO4)cc(OC)c1O` are 42 nM, 6290 nM, 93 nM and 111 nM.
On the same counts, the results for `COc1cc([C@@H]2c3cc4c(cc3[C@@H](Nc3cccc(OCCCCCC(=O)NO)c3)[C@H]3COC(=O)[C@H]23)OCO4)cc(OC)c1O` are 15 nM, 5720 nM, 45 nM and 81 nM.
Consider `COc1cc([C@@H]2c3cc4c(cc3[C@@H](Nc3ccc(OCCCC(=O)NO)cc3)[C@H]3COC(=O)[C@H]23)OCO4)cc(OC)c1O`, for which the IC50 in experiment [1] was found to be 214 nM; in the experiment on HCT-116, 5370 nM; on Histone deacetylase 1, 243 nM; at Histone deacetylase 3, 193 nM.
For `COc1cc([C@@H]2c3cc4c(cc3[C@@H](Nc3ccc(OCCCCC(=O)NO)cc3)[C@H]3COC(=O)[C@H]23)OCO4)cc(OC)c1O`, in that order: 88 nM, 5260 nM, 125 nM and 242 nM.
On the same counts, the results for `COc1cc([C@@H]2c3cc4c(cc3[C@@H](Nc3cccc(NC(=O)CCCCCC(=O)NO)c3)[C@H]3COC(=O)[C@H]23)OCO4)cc(OC)c1O` are 160 nM, 19600 nM, 380 nM and 590 nM.
For `COc1cc([C@@H]2c3cc4c(cc3[C@@H](Nc3ccccc3OCCCCC(=O)NO)[C@H]3COC(=O)[C@H]23)OCO4)cc(OC)c1O`, the IC50 is 84 nM in experiment [1], 16500 nM with HCT-116, 369 nM at Histone deacetylase 1 and 899 nM on Histone deacetylase 3.
